Measured values published in ChEMBL document CHEMBL1124710, “Studies on Ca2+ channel antagonists. A 2-diazo-3,3,3-trifluoropropionamide derivative related to verapamil as a potential photoaffinity probe” (J Med Chem, 1990).

Tests used:
[1] = Binding affinity to displace 0.4 nM of [3H]- gallopamil in rat myocardial membranes; assay type: cell membranes, Myocardium, Membrane
Rattus norvegicus = species on record: Rattus norvegicus; assay: Effective concentration for negative inotropic effect in rat myocardial ventricular strips; assay type: functional; conditions: Cardiac ventricle

Row | Ki [1] [nM] | EC50 (Rattus norvegicus) [nM] | SMILES
1 | 37.6 | 105 | COc1ccc(C(C#N)(CCCN(C)CCc2ccc(N(C)C(=O)C([N+]#N)C(F)(F)F)cc2)C(C)C)cc1OC (centres undefined)
2 | 15.5 | 21.8 | COc1ccc(CCN(C)CCCC(C#N)(c2cc(OC)c(OC)c(OC)c2)C(C)C)cc1OC (centres undefined) [GALLOPAMIL]
